Our source for the GI50 and TGI values is PubChem BioAssay (NCI).

Structures are written as SMILES.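 Briefly, cells in 96-well plates were exposed to five compound concentrations for 48 h, and endpoints were estimated by linear interpolation. The concentration for 50% growth inhibition is given as GI50. TGI: total growth inhibition.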

Test systems include MDA-MB-231 breast; T-47D breast; HCT-15 colon; UO-31 renal; PC-3 prostate; CCRF-CEM leukemia; OVCAR-8 ovarian; MDA-MB-435; HS 578T breast; MALME-3M melanoma.
Holding throughout (test): NCI anticancer screen, dose series, 48 h

As to `O=C(O)c1cccc(COc2ccc([N+](=O)[O-])cc2Cl)c1`, the GI50 in the test with MDA-MB-231 breast, with T-47D breast, in the test on HCT-15 colon, in the test with UO-31 renal, with PC-3 prostate and in the test with CCRF-CEM leukemia was more than 100 µM each time. Further, the GI50 in the test on OVCAR-8 ovarian is 86.4 µM; in the test with MDA-MB-435, more than 100 µM. In addition, the TGI with MDA-MB-231 breast, in the test on T-47D breast, in the test on HCT-15 colon, in the test on UO-31 renal, in the test with PC-3 prostate and in the test with CCRF-CEM leukemia was more than 100 µM in each case. For the same compound, the TGI in the test on OVCAR-8 ovarian and in the test with MDA-MB-435 was more than 100 µM throughout.
For the compound `CCCC(=O)C1=C(O)C(Cc2c(O)c(C)c(O)c(C(=O)CCC)c2O)=C(O)C(C)(C)C1=O`, the TGI in the test with MDA-MB-231 breast, with HS 578T breast, in the test on T-47D breast, with HCT-15 colon, in the test with UO-31 renal and in the test with PC-3 prostate was more than 50 µM throughout. The TGI in the test on CCRF-CEM leukemia was 20 µM; in the test on OVCAR-8 ovarian it was more than 50 µM; with MDA-MB-435, more than 50 µM.
As for `COc1ccc(-c2cnnn2-c2nonc2-n2cccc2)cc1`, the GI50 is 1.21 µM in the test with MDA-MB-231 breast; 0.239 µM in the test with HS 578T breast; 0.311 µM in the test with HCT-15 colon; 0.298 µM in the test with UO-31 renal; 0.331 µM in the test on PC-3 prostate; 0.382 µM in the test with MALME-3M melanoma. Besides, the GI50 with CCRF-CEM leukemia was 0.228 µM; with OVCAR-8 ovarian, 0.425 µM; with MDA-MB-435 it was 0.0325 µM. Also, the TGI is more than 25 µM with MDA-MB-231 breast; 2.13 µM with HS 578T breast; more than 100 µM in the test with HCT-15 colon; 37.6 µM with UO-31 renal; 31.9 µM in the test with PC-3 prostate; 27.6 µM in the test on MALME-3M melanoma. The TGI with CCRF-CEM leukemia came to 3.85 µM; in the test with OVCAR-8 ovarian it was 18.9 µM; with MDA-MB-435 it was 0.173 µM.
For the compound `O=C1CCCN1c1ccccc1I(=O)=O`, the GI50 with MDA-MB-231 breast is more than 100 µM; in the test on HS 578T breast it was more than 100 µM; with T-47D breast, 91.4 µM; with HCT-15 colon it was more than 100 µM; in the test on UO-31 renal, more than 100 µM; in the test on MALME-3M melanoma, more than 100 µM. For the same compound, the GI50 with CCRF-CEM leukemia, with OVCAR-8 ovarian and in the test with MDA-MB-435 was more than 100 µM in each case. Further, the TGI in the test with MDA-MB-231 breast, in the test with HS 578T breast, in the test with T-47D breast, with HCT-15 colon, in the test on UO-31 renal and in the test on MALME-3M melanoma was more than 100 µM throughout. For the same compound, the TGI with CCRF-CEM leukemia, in the test on OVCAR-8 ovarian and in the test on MDA-MB-435 was more than 100 µM each time.
For `O=[N+]([O-])c1cccc(C2=NOC(C3CCCCC3)C2)c1` (stereo unspecified), the TGI in the test with HCT-15 colon, in the test with UO-31 renal, with MALME-3M melanoma, with CCRF-CEM leukemia and with OVCAR-8 ovarian was more than 100 µM in each case.
Turning to `CCOP(=O)(OCC)C(C(=O)OC)C(=O)C(=O)Nc1ccc(Cl)cc1Cl` (stereo unspecified), the TGI in the test with HCT-15 colon, in the test on UO-31 renal, in the test with MALME-3M melanoma, in the test with CCRF-CEM leukemia and with OVCAR-8 ovarian was more than 100 µM each time.
Regarding `Nc1ccccc1C(=O)/C=C/c1c(O)ccc2ccccc12`, the TGI in the test with HCT-15 colon, with UO-31 renal, in the test on MALME-3M melanoma, in the test with CCRF-CEM leukemia and with OVCAR-8 ovarian was more than 100 µM each time.
On to `Nc1nc(-c2ccc(Cl)c([N+](=O)[O-])c2)cs1`, for which the TGI in the test on HCT-15 colon, with UO-31 renal, with MALME-3M melanoma, in the test with CCRF-CEM leukemia and with OVCAR-8 ovarian was more than 100 µM each time.
On to `CN(C)CCNCCN`, for which the TGI with MDA-MB-231 breast, in the test with HS 578T breast, with T-47D breast, in the test on HCT-15 colon, in the test on UO-31 renal and with PC-3 prostate was more than 100 µM each time. In addition, the TGI with MALME-3M melanoma, in the test on OVCAR-8 ovarian and in the test on MDA-MB-435 was more than 100 µM throughout.
As to `CCOCN1COCN(C)C1=O`, the TGI with HCT-15 colon, in the test on UO-31 renal, in the test on MALME-3M melanoma, in the test with CCRF-CEM leukemia and in the test on OVCAR-8 ovarian was more than 100 µM throughout.
In the case of `N#CCCN1C/C(=C/c2ccc(Br)cc2)C(=O)/C(=C/c2ccc(Br)cc2)C1`, the GI50 was 2.95 µM in the test on MDA-MB-231 breast; 4.36 µM in the test on T-47D breast; 1.07 µM in the test with HCT-15 colon; 1.47 µM with UO-31 renal; 1.51 µM with PC-3 prostate; 2.23 µM in the test on MALME-3M melanoma. For the same compound, the results for the GI50 in the test with CCRF-CEM leukemia, with OVCAR-8 ovarian and with MDA-MB-435 were 0.341 µM, 1.14 µM and 2.24 µM, respectively. For the same compound, the TGI with MDA-MB-231 breast came to 11.4 µM; in the test on T-47D breast, 28.2 µM; in the test with HCT-15 colon, 2.9 µM; with UO-31 renal, 2.92 µM; in the test on PC-3 prostate it was 7.54 µM; with MALME-3M melanoma, 5.29 µM. The TGI was more than 100 µM in the test with CCRF-CEM leukemia, more than 100 µM with OVCAR-8 ovarian and 6.83 µM with MDA-MB-435.
For `NC(=O)C(=O)CC(=O)c1ccccc1NC1=CC(=O)C(=O)c2ccccc21`, the TGI with HCT-15 colon was more than 100 µM; in the test with UO-31 renal it was more than 100 µM; with MALME-3M melanoma it was more than 59 µM; in the test with CCRF-CEM leukemia, more than 100 µM; with OVCAR-8 ovarian, more than 100 µM.
As to `CCCC/C(=C\C1=C(C)C(=O)C(OC)=C(OC)C1=O)C(=O)O`, the GI50 is 33.9 µM with MDA-MB-231 breast; more than 100 µM in the test with HS 578T breast; 33.2 µM in the test with T-47D breast; more than 100 µM in the test on HCT-15 colon; more than 100 µM in the test with UO-31 renal; more than 100 µM in the test with PC-3 prostate. Moreover, the GI50 in the test on MALME-3M melanoma, with OVCAR-8 ovarian and with MDA-MB-435 was more than 100 µM throughout. The TGI in the test on MDA-MB-231 breast is more than 100 µM; in the test on HS 578T breast, more than 100 µM; with T-47D breast it was 94.3 µM; with HCT-15 colon it was more than 100 µM; in the test on UO-31 renal, more than 100 µM; with PC-3 prostate, more than 100 µM. Also, the TGI in the test with MALME-3M melanoma, with OVCAR-8 ovarian and with MDA-MB-435 was more than 100 µM throughout.
With `CCN1c2ccccc2-c2c3c1cc(C)cc3c1ccccc1[n+]2CC`, the TGI in the test on HCT-15 colon is 22.6 µM; in the test with UO-31 renal, 20.8 µM; in the test with MALME-3M melanoma, 7.73 µM; in the test with CCRF-CEM leukemia it was 2.83 µM; in the test on OVCAR-8 ovarian it was 1.86 µM.
